Data taken from patent US7150974B1, “Parathyroid hormone receptor binding method” (The General Hospital Corporation, priority 1991, dated 2006).

Experiments:
[1] = biological target: T1, opossum kidney PTH/PTHrP receptor clone, OK-H (Didelphis virginiana, UniProt P25107, I132F/S86P); assay: Intracellular free calcium, COS cells expressing OK-H; type: cell-based; settings: FIG. 10, smaller extent, or not at all, compared with OK-O or R15B
T1 construct: expressed in transfected cells; host or cells: COS cells, transient, plasmid OK-H (pcDNA I)
Experimental: Measurements of intracellular calcium levels in cells transfected with PTH/PTHrP receptor cDNAs were performed using Fura-2 AM (acetomethoxy ester of Fura-2, Molecular Probes Inc., Eugene, Oreg.) loaded cells. Details of the methodology are:
Coverslips plated with COS cells were incubated in Fura-2 AM loading buffer containing, in mM: HEPES (N-[2-Hydroxyethyl]piperazine-N′-[2-ethanesulfonic acid]), 20; CaCl2, 1; KCl 5; NaCl, 145; MgSO4, 0.5; NaHCO3, 25; K2HPO4, 1.4; glucose, 10; and Fura-2 AM 91-(2-5′-carboxyoxazol-2′-yl)-6-aminobenzofuran-5oxy-(2′-amino-5′-methylphenoxy)ethane-N,N,N′,N′-tetraaecetic acid acetomethoxy ester), 0.5; at 37° C. at pH7.4, aerated with 95% air and 5% CO2 for 45 minutes. Cells loaded with Fura-2 AM were then washed with a modified Krebs-Heinseleit (KH) buffer containing, in mM: HEPES, 20; CaCl2, 1; KCl, 5; NaCl, 145; MgSO4, 0.5; Na2HPO4, 1; glucose, 5; pH7.4. To check that cleavage of the ester occurred, the excitation spectra after different times of Fura-2 AM incubation were measured. […]
To measure fluorescence of individual cells, the cover slips were placed in a microscope tissue chamber (Biophysica Technologies, Inc., MD). […] Fura-2 fluorescence was excited with a 75 watt Xenon arc lamp placed at the focal point of a condenser (Photon Technologies International (PTI) Inc., NJ). […]

[2] = biological target: T2, opossum kidney PTH/PTHrp receptor clone, OK-O (Didelphis virginiana, UniProt P25107, I132F/S86P); assay: Radioreceptor assay, COS cells expressing OK-O; type: binding; settings: FIG. 11
T2 construct: expressed in transfected cells; host or cells: COS cells, transient, plasmid OK-O (pcDNA I)
Experimental: [Nle^8,Nle^18,Tyr^34]bPTH-(1-34)amide (NlePTH), and [Tyr^36]PTHrP(1-36)amide(PTHrP) were iodinated with Na^125I (carrier free, New England Nuclear, Boston, Mass.) as previously reported (Segre et al., J. Biol. Chem. 254: 6980, 1979), and purified by reverse-phase HPLC. In brief, the labeled peptide was dissolved in 0.1% trifluoracetic acid (TFA), applied to a C18 Sep-pak cartridge (Waters Associates, Inc., Milford, Mass.) and eluted with a solution of 60% acetonitrile in 0.1% TFA. After lyophilization, the radioligand then was applied to C18-μBondapak column (3.9 mm×30 cm. Waters Associates) and eluted over 30 min with a linear gradient of 30-50% acetonitrile-0.1% TFA at a flow rate of 2 ml/min. The radioligand eluted in two peaks; the first peak, which eluted at approximately 38% acetonitrile, was used in these studies because it gave higher total and specific bindings. The specific activity was 500±75 mCi/mg, which corresponds to an average iodine-peptide ratio of 1.
COS-7 cells were grown in 15 cm plates in DMEM, 10% heat-inactivated […], 10 mg/L gentamycin until 80-90% confluent. Twenty-four hours after transfection by the DEAE/Dextran method (Sambrook et al., supra), with 1-2 μg of plasmid DNA, the cells were trypsinized and replated in multiwell plastic dishes (16 or 35 mm diameter, Costar, Cambridge, Mass.) at a cell concentration of 5×10^4 cells/cm^2). Cell number increased only slightly after transfection. After continuing culture for another 48 h, radiorecepter assays were performed. […]
Incubations were terminated by aspirating the buffer, and repeatedly (×3) washing the culture dishes, containing the adherent cells with chilled 0.9% NaCl solution, over a 15 sec period. Cell-bound radioactivity was recovered by the sequential addition (×3) of 1 N NaOH (200 μl) to each well. […] A second and third extraction with 1 N NaOH (200 μl) were combined with the first, and the total radioactivity was counted in a γ-spectrometer (Packard Instruments, Downers Grove, Ill.). […]

T2 sequence (P25107 27-585 S86P/I132F): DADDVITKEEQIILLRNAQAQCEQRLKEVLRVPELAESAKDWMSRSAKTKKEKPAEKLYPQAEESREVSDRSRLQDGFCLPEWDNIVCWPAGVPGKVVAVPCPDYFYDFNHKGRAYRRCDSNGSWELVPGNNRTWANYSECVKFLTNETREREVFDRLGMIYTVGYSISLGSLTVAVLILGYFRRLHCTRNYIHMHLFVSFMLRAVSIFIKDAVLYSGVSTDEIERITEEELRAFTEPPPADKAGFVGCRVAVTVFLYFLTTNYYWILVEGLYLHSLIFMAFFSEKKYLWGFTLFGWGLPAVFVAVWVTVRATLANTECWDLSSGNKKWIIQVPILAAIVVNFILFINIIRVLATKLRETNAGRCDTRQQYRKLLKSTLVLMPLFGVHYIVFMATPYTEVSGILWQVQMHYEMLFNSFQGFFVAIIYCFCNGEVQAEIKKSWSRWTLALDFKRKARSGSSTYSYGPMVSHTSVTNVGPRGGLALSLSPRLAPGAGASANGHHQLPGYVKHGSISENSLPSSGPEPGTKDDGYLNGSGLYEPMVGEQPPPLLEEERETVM
T1 sequence (P25107 other isoform, or with tags, fused parts or gaps S86P/I132F): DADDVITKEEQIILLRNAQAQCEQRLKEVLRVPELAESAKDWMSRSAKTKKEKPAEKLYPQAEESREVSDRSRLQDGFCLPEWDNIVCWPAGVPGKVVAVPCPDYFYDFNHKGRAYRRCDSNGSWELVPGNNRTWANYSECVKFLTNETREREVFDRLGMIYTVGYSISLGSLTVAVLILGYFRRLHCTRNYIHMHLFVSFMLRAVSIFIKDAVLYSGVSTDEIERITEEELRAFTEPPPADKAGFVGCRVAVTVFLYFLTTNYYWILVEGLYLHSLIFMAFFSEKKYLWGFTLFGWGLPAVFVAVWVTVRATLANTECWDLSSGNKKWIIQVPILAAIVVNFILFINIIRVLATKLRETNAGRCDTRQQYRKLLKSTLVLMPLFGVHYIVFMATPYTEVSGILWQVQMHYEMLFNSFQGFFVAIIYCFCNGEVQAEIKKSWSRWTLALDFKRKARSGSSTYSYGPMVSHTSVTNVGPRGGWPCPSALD

Substance: [Nle^8,18, Tyr^34]bPTH(1-34)amide
- increase in concentration of intracellular free calcium (mean) [1]: 39 nM
- inhibition of 125I-PTHrP binding by competitor [2]: inhibited
